What was measured:
[1] = method code SF-HPLC, from DOI: 10.1023/a:1015862319927, PMID: 2062808; conditions: pH 7.4
[2] = method code SF-HPLC, from DOI: 10.1016/0378-5173(87)90096-2; conditions: pH 8.0
[3] = method code SF, from DOI: 10.1021/bk-1995-0606.ch004
[4] = method code SF-HPLC, from DOI: 10.1248/cpb.41.694
[5] = method code SF-HPLC, from DOI: 10.1007/s00216-006-0868-5, PMID: 17082876
[6] = method code SF-AS, from DOI: 10.1021/es00012a023, PMID: 22148214
[7] = method code SF-AS, from DOI: 10.1016/0006-2952(80)90068-4, PMID: 6775639
[8] = method code SF, from DOI: 10.1016/s0378-5173(98)00231-2
[9] = method code SF, from DOI: 10.1080/09553008714551831, PMID: 3497891; conditions: pH 7.4
[10] = method code SF, from DOI: 10.1016/0048-3575(88)90017-x
[11] = method code SF-AS, from DOI: 10.1021/acs.inorgchem.5b01238, PMID: 26280387
[12] = not given; remark: listed apart in the source
[13] = method code SF-AS, from DOI: 10.1016/0006-2952(93)90433-w, PMID: 8494536; conditions: pH 7.4
[14] = method code SF-HPLC, from DOI: 10.1016/0378-5173(86)90071-2; conditions: pH 7.4
[15] = method code SF-GLC, from DOI: 10.1016/j.chemosphere.2004.08.061, PMID: 15519382
[16] = method code SF-AS, from DOI: 10.1021/jm00297a026, PMID: 5441130
[17] = method code SF, from DOI: 10.3109/00498258709043934, PMID: 3564538
[18] = method code SF-AS, from DOI: 10.1016/s0021-9673(01)91572-9, PMID: 2376602; conditions: pH 7.0
[19] = method code SF-NMR, from DOI: 10.1021/jm00157a023, PMID: 3806574
[20] = method code SF-AS, from DOI: 10.1021/jm00075a005, PMID: 8246220; conditions: pH 7.4
[21] = not given; remark: listed apart in the source
[22] = method code SF-AS, from DOI: 10.1002/jps.2600611027, PMID: 5072421
[23] = method code SF-HPLC, from Peips, M.; Sikk, P.; Aaviksaar, A. (1986). Hydrophobic interaction in the active sites of serine proteases from thermoactinomycetes. Org. React., 23(3)261-271.; conditions: pH 2.2
[24] = method code SF, from DOI: 10.1016/0223-5234(94)90060-4; conditions: pH 7.4
[25] = not given; remark: listed apart in the source
[26] = method code SF-RC, from Audran, M.; Chanal, J.; Berge, G.; Marignan, R. (1983). Binding-structure correlation of bovine serum albumin in a series of cresotinamides. International Journal of Pharmaceutics, 15(3)273-284.; conditions: pH 1.0
[27] = method code SF-CR+DM, from DOI: 10.1021/ja01573a017; conditions: pH 6.5

O=C(OC[C@H]1O[C@@H](n2cc(I)c(=O)[nH]c2=O)C[C@@H]1O)c1ccccc1
logD [1]: 1.4

CCc1ccc2ccccc2c1
logP: 4.38

NC(=O)CCCc1ccncc1
logD [2]: 0.06

CCOP(=O)(Oc1ccc(C#N)cc1)c1ccccc1 (configuration not stated)
logP [3]: 2.44

COP(=O)(OC)Oc1ccc(C#N)cc1
logP [3]: 0.84

CSc1ccc(COC(=O)N(C)C)cc1
logP [4]: 2.86

CC(=O)CC(=O)Nc1ccccc1
logP [5]: 1.04

CC(C)OC(=O)CS(=O)c1ccc(Cl)cc1[N+](=O)[O-] (configuration not stated)
logP [6]: 2.22

CC1=CC(=O)C(C)=C(C)C1=O
logP [7]: 1.47

OCCCc1ccccc1
logP [8]: 1.83

CC(OCC=CCO)N1C=CNC1[N+](=O)[O-] (configuration not stated)
logD [9]: -0.28

CC(=O)OCN1C(=O)c2ccccc2C1=O
logP [10]: 1.15

CSC(=S)C=C(O)c1cccc(O)c1
logP [11]: 1.71

CNCc1ccc(C)cc1
logP [12]: 1.96

CCCCCNCc1ccc(C)cc1
logP [12]: 4.26

CS(=O)(=O)c1cccc2ccccc12
logD [13]: 1.74

CC(C)(C)C(=O)OCOc1ccccc1C(N)=O
logD [14]: 2

NC(=O)CCCc1cccnc1
logD [2]: 0.07

Cn1c(Cl)c(Cl)c(Br)c1-c1c(Br)c(Br)c(Cl)n1C
logP [15]: 6.5

CCCCCn1cnc2c(N)ncnc21
logP [16]: 1.79

CC(C)OC(=O)C(C(=O)OC(C)C)=C1SC=CS1
logP [17]: 3.75

CCCOC(=O)C(C(=O)OCCC)=C1SC=CS1
logP [17]: 3.93

Nc1ncnc2c1ncn2C1C=C(CO)C(O)C1O (configuration not stated)
logD [18]: -1.3

CCOCCOCCOP(=O)(N1CC1(C)C)N1CC1(C)C (configuration not stated)
logP [19]: 0.22

O=C1CC2(CCCC2)C(=O)N1OCc1ccccc1
logD [20]: 2.3

Cc1cn(C2CC(N=[N+]=[N-])C(COC(=O)C(=O)NC(Cc3ccccc3)C(=O)O)O2)c(=O)[nH]c1=O (configuration not stated)
logP [21]: 1.2

CON1C(=O)CC2(CCCC2)C1=O
logD [20]: 1.15

CCCCCCc1ccncc1
logP [22]: 4.35

Cn1c(Br)c(Br)c(Br)c1-c1c(Br)c(Br)c(Br)n1C
logP [15]: 6.7

CCCCC(NC(C)=O)C(=O)OC (racemic)
logD [23]: 0.79

CCCCCc1ccncc1
logP [22]: 3.75

CN(C)C(=O)OCc1cccc([N+](=O)[O-])c1
logP [4]: 1.98

CC(C=CC1=C(C)CCCC1(C)C)=CC=CC(C)=CC(=O)Nc1ccn(C2CSC(CO)O2)c(=O)n1 (configuration not stated)
logD [24]: 1.23

CC(C)OC(=O)CS(=O)c1ccc([N+](=O)[O-])cc1 (configuration not stated)
logP [6]: 1.64

COCCc1ccc(OCC(O)CNC(C)C)cc1 (configuration not stated)
logP [25]: 1.65

CCCCNC(=O)c1cc(Br)cc(C)c1O
logD [26]: 4.21

CC(=O)OCOc1ccccc1C(N)=O
logD [14]: 0.52

Cc1ccc(NC(=O)c2ccccc2)c(O)c1
logD [27]: 3.08

O=c1[nH]c(=O)n([C@H]2C[C@H](O)[C@@H](CO)O2)cc1I
logD [1]: -0.95

CCCCCC(NC(C)=O)C(=O)OC (configuration not stated)
logD [23]: 1.28

CCC(C)C(NC(=O)C(=O)OCC1OC(n2cc(C)c(=O)[nH]c2=O)CC1N=[N+]=[N-])C(=O)O (configuration not stated)
logP [21]: 1.15

CCCC(=O)OCOc1ccccc1C(N)=O
logD [14]: 1.66
